ChEMBL document CHEMBL5338713, “Discovery of pomalidomide-based PROTACs for selective degradation of histone deacetylase 8” (Eur J Med Chem, 2022)
Calls of active or inactive are those of the source. The rule behind the calls is not given here.

Columns and labels:
Type in all cases: cell-based
[1] = target: T1, Histone deacetylase 8 (Homo sapiens) (UniProt Q9BY41); test: Induction of HDAC8 degradation in human HCT-116 cells at 5 uM by Western blot analysis relative to control
T1 sequence (whole entry): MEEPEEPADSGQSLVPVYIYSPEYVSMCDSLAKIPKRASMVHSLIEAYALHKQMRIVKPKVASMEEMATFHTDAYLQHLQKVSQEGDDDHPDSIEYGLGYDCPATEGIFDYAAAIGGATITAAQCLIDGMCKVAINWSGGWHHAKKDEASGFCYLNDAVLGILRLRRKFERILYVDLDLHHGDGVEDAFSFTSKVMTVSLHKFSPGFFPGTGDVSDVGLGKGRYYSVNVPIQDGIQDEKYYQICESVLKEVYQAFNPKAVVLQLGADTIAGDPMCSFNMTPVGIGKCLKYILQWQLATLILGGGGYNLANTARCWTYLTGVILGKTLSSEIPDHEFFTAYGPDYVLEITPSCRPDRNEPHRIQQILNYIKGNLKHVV

[2] = target: Protein cereblon/Histone deacetylase 8 (Homo sapiens) (UniProt Q9BY41+Q96SW2); test: PROTAC activity at HDAC8/CRBN in human HCT-116 cells assessed as degradation of HDAC8 at 5 uM by Western blot analysis
Sequence of Protein cereblon/Histone deacetylase 8 (Homo sapiens) (Q96SW2 whole entry, looked up, one chain of several): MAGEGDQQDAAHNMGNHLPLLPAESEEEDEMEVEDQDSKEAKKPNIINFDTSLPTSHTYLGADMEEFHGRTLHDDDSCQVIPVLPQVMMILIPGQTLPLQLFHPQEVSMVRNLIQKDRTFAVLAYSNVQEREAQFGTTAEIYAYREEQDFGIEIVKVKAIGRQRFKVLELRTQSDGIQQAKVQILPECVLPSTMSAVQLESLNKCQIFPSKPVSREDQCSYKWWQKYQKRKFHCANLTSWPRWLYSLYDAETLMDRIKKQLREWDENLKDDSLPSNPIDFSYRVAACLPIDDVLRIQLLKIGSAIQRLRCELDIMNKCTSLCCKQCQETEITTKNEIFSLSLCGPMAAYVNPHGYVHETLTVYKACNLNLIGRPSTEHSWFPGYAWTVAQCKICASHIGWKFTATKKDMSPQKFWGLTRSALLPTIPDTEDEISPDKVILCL

Histone deacetylase 8 = target: T2, Histone deacetylase 8 (Homo sapiens, UniProt Q9BY41); test: Induction of HDAC8 degradation in human HCT-116 cells measured after 10 hrs by Western blot analysis
T2 sequence (Q9BY41 whole entry): T1 sequence (whole entry)

[3] = target: T1, Histone deacetylase 8 (Homo sapiens); test: Induction of HDAC8 degradation in human HCT-116 cells assessed as maximum degradation at 0.1 to 160 uM measured after 10 hrs by Western blot analysis relative to control; details: dose 0.1-160 µM

SMILES	Activity [1]	also measured
O=C1CCC(N2C(=O)c3cccc(N4CC(N5CCN(C(=O)CCCCOc6ccc(CCNC(=O)c7cccc(C(=O)NO)c7)cc6)CC5)C4)c3C2=O)C(=O)N1 (configuration not stated)	59.6%	–
O=C1CCC(N2C(=O)c3cccc(N4CCC(CN5CCN(C(=O)CCCCOc6ccc(CCNC(=O)c7cccc(C(=O)NO)c7)cc6)CC5)CC4)c3C2=O)C(=O)N1 (configuration not stated)	48.3%	–
O=C(COc1ccc(CCNC(=O)c2cccc(C(=O)NO)c2)cc1)NCCCNc1cccc2c1C(=O)N(C1CCC(=O)NC1=O)C2=O (configuration not stated)	32%	–
O=C(CCCCCCOc1ccc(CCNC(=O)c2cccc(C(=O)NO)c2)cc1)NCCCNc1cccc2c1C(=O)N(C1CCC(=O)NC1=O)C2=O (configuration not stated)	30.5%	–
O=C(CCCOc1ccc(CCNC(=O)c2cccc(C(=O)NO)c2)cc1)NCCCCCNc1cccc2c1C(=O)N(C1CCC(=O)NC1=O)C2=O (configuration not stated)	33.4%	–
O=C(CCCOc1ccc(CCNC(=O)c2cccc(C(=O)NO)c2)cc1)NCCCNc1cccc2c1C(=O)N(C1CCC(=O)NC1=O)C2=O (configuration not stated)	21.2%	–
O=C(CCCCOc1ccc(CCNC(=O)c2cccc(C(=O)NO)c2)cc1)NCCCNc1cccc2c1C(=O)N(C1CCC(=O)NC1=O)C2=O (configuration not stated)	25.8%	–
O=C(CCCOc1ccc(CCNC(=O)c2cccc(C(=O)NO)c2)cc1)NCCCCNc1cccc2c1C(=O)N(C1CCC(=O)NC1=O)C2=O (configuration not stated)	20.8%	–
O=C(CCCCOc1ccc(CCNC(=O)c2cccc(C(=O)NOC3CCCCO3)c2)cc1)NCCCCCCNc1cccc2c1C(=O)N(C1CCC(=O)NC1=O)C2=O (configuration not stated)	–	Activity [2]: inactive
CN1C(=O)CCC(N2C(=O)c3cccc(NCCCCCCNC(=O)CCCCOc4ccc(CCNC(=O)c5cccc(C(=O)NO)c5)cc4)c3C2=O)C1=O (configuration not stated)	–	Activity [2]: inactive
O=C(NO)c1cccc(C(=O)NCCc2ccccc2)c1	-22%	–
Nc1cccc2c1C(=O)N(C1CCC(=O)NC1=O)C2=O (configuration not stated)	-11%	–
O=C(CCCCCCOc1ccc(CCNC(=O)c2cccc(C(=O)NO)c2)cc1)NCCCCNc1cccc2c1C(=O)N(C1CCC(=O)NC1=O)C2=O (configuration not stated)	19.8%	–
O=C(CCCCOc1ccc(CCNC(=O)c2cccc(C(=O)NO)c2)cc1)NCCNc1cccc2c1C(=O)N(C1CCC(=O)NC1=O)C2=O (configuration not stated)	52.5%	–
O=C(CCCCOc1ccc(CCNC(=O)c2cccc(C(=O)NO)c2)cc1)NCCCCCCNc1ccc2c(c1)C(=O)N(C1CCC(=O)NC1=O)C2=O (configuration not stated)	68.9%	DC50 (Histone deacetylase 8): 441 nM; Emax [3]: 77%
O=C1CCC(N2C(=O)c3cccc(N4CCN(C5CCN(C(=O)CCCCOc6ccc(CCNC(=O)c7cccc(C(=O)NO)c7)cc6)CC5)CC4)c3C2=O)C(=O)N1 (configuration not stated)	43.2%	–
O=C1CCC(N2C(=O)c3cccc(N4CCC(N5CCN(C(=O)CCCCOc6ccc(CCNC(=O)c7cccc(C(=O)NO)c7)cc6)CC5)CC4)c3C2=O)C(=O)N1 (configuration not stated)	74.4%	DC50 (Histone deacetylase 8): 876 nM; Emax [3]: 91%
O=C(COc1ccc(CCNC(=O)c2cccc(C(=O)NO)c2)cc1)NCCCCCNc1cccc2c1C(=O)N(C1CCC(=O)NC1=O)C2=O (configuration not stated)	10.7%	–
O=C(CCCCCCOc1ccc(CCNC(=O)c2cccc(C(=O)NO)c2)cc1)NCCCCCNc1cccc2c1C(=O)N(C1CCC(=O)NC1=O)C2=O (configuration not stated)	23.7%	–

SMILES	Activity [1]	also measured
O=C1CCC(N2C(=O)c3cccc(N4CCN(C5CN(C(=O)CCCCOc6ccc(CCNC(=O)c7cccc(C(=O)NO)c7)cc6)C5)CC4)c3C2=O)C(=O)N1 (configuration not stated)	39.5%	–
O=C(CCCOc1ccc(CCNC(=O)c2cccc(C(=O)NO)c2)cc1)NCCCCCCNc1cccc2c1C(=O)N(C1CCC(=O)NC1=O)C2=O (configuration not stated)	49.6%	–
O=C(CCCCOc1ccc(CCNC(=O)c2cccc(C(=O)NO)c2)cc1)NCCCCCNc1cccc2c1C(=O)N(C1CCC(=O)NC1=O)C2=O (configuration not stated)	72.9%	–
O=C(CCCCOc1ccc(CCNC(=O)c2cccc(C(=O)NO)c2)cc1)NCCCCNc1cccc2c1C(=O)N(C1CCC(=O)NC1=O)C2=O (configuration not stated)	53%	–
O=C(CCCOc1ccc(CCNC(=O)c2cccc(C(=O)NO)c2)cc1)NCCNc1cccc2c1C(=O)N(C1CCC(=O)NC1=O)C2=O (configuration not stated)	44.3%	–
O=C(CCCCCOc1ccc(CCNC(=O)c2cccc(C(=O)NO)c2)cc1)NCCCNc1cccc2c1C(=O)N(C1CCC(=O)NC1=O)C2=O (configuration not stated)	16.9%	–
O=C1CCC(N2C(=O)c3cccc(N4CCN(CC5CN(C(=O)CCCCOc6ccc(CCNC(=O)c7cccc(C(=O)NO)c7)cc6)C5)CC4)c3C2=O)C(=O)N1 (configuration not stated)	6.54%	–
O=C(CCCCCOc1ccc(CCNC(=O)c2cccc(C(=O)NO)c2)cc1)NCCCCNc1cccc2c1C(=O)N(C1CCC(=O)NC1=O)C2=O (configuration not stated)	24.4%	–
O=C1CCC(N2C(=O)c3cccc(N4CC(CN5CCN(C(=O)CCCCOc6ccc(CCNC(=O)c7cccc(C(=O)NO)c7)cc6)CC5)C4)c3C2=O)C(=O)N1 (configuration not stated)	56.3%	–
O=C(COc1ccc(CCNC(=O)c2cccc(C(=O)NO)c2)cc1)NCCNc1cccc2c1C(=O)N(C1CCC(=O)NC1=O)C2=O (configuration not stated)	25.8%	–
O=C(CCCCCOc1ccc(CCNC(=O)c2cccc(C(=O)NO)c2)cc1)NCCCCCCNc1cccc2c1C(=O)N(C1CCC(=O)NC1=O)C2=O (configuration not stated)	45.2%	–
O=C(CCCCCOc1ccc(CCNC(=O)c2cccc(C(=O)NO)c2)cc1)NCCNc1cccc2c1C(=O)N(C1CCC(=O)NC1=O)C2=O (configuration not stated)	72.9%	–
O=C(CCCCCCOc1ccc(CCNC(=O)c2cccc(C(=O)NO)c2)cc1)NCCCCCCNc1cccc2c1C(=O)N(C1CCC(=O)NC1=O)C2=O (configuration not stated)	25.6%	–
O=C1CCC(N2C(=O)c3cccc(N4CCN(C(=O)CCCCOc5ccc(CCNC(=O)c6cccc(C(=O)NO)c6)cc5)CC4)c3C2=O)C(=O)N1 (configuration not stated)	57.9%	–
O=C(CCCCCCOc1ccc(CCNC(=O)c2cccc(C(=O)NO)c2)cc1)NCCNc1cccc2c1C(=O)N(C1CCC(=O)NC1=O)C2=O (configuration not stated)	65.2%	–
O=C1CCC(N2C(=O)c3cccc(N4CCN(CC5CCN(C(=O)CCCCOc6ccc(CCNC(=O)c7cccc(C(=O)NO)c7)cc6)CC5)CC4)c3C2=O)C(=O)N1 (configuration not stated)	43.6%	–
O=C(CCCCCOc1ccc(CCNC(=O)c2cccc(C(=O)NO)c2)cc1)NCCCCCNc1cccc2c1C(=O)N(C1CCC(=O)NC1=O)C2=O (configuration not stated)	51.7%	–
O=C(COc1ccc(CCNC(=O)c2cccc(C(=O)NO)c2)cc1)NCCCCNc1cccc2c1C(=O)N(C1CCC(=O)NC1=O)C2=O (configuration not stated)	43.6%	–
O=C(COc1ccc(CCNC(=O)c2cccc(C(=O)NO)c2)cc1)NCCCCCCNc1cccc2c1C(=O)N(C1CCC(=O)NC1=O)C2=O (configuration not stated)	54.5%	–
